Where a name gives a salt, the structure may show the parent alone.
Tests used:
[1] = Plasma pharmacokinetics of vancomycin in rats, LC-MS/MS with non-compartmental analysis; conditions: rat plasma
[2] = stated in the chemicals section, no method or reference given, cited from earlier work
Description: The 0.9% NaCl (Sing-Tong, Taiwan), Acetonitrile (CAN; Fisher Scientific U.K. Ltd., Loughborough, England), Bupivacaine (Marcaine®; AstraZeneca, Cambridge, UK), formic acid (FA; Merck, Germany), DMSO (Merck, Darmstadt, Germany), Ketalar injection (50 mg/mL; Pfizer, New York, NY, USA), methanol (MeOH; AENCORE, Australia), PBS (Sigma, USA), pentobarbital (Health-Tech Pharmaceutical Co., Ltd., Taiwan), Rompun injection (2%; Bayer, Leverkusen, Germany), and sodium heparin bodene (Pty) (Limited Trading as Intramed, Maharashtra, India). Acetonitrile, chloroform, and methanol VWR International (Radno ...

[3] = day three, 150 mg/kg IV 3 min infusion qd x3, NCA, LC-MS/MS, mean, n = 6

CN[C@H](CC(C)C)C(=O)N[C@H]1C(=O)N[C@@H](CC(N)=O)C(=O)N[C@H]2C(=O)N[C@H]3C(=O)N[C@H](C(=O)N[C@H](C(=O)O)c4cc(O)cc(O)c4-c4cc3ccc4O)[C@H](O)c3ccc(c(Cl)c3)Oc3cc2cc(c3O[C@@H]2O[C@H](CO)[C@@H](O)[C@H](O)[C@H]2O[C@H]2C[C@](C)(N)[C@H](O)[C@H](C)O2)Oc2ccc(cc2Cl)[C@H]1O [Vancomycin Hydrochloride, Vancomycin hydrochloride]
Reduction in plasma vancomycin concentration compared to the PEG-VANCO-lipo group ([1]; day one at 0.5 and 1 h, day three at 1, 2 and 4 h, 150 mg/kg IV qd x3, n = 3, p ≤ 0.05, Tukey's two-way ANOVA): 2–5 fold | t1/2 ([1]; day three, 150 mg/kg IV 3 min infusion qd x3, NCA (WinNonlin), LC-MS/MS, mean, n = 6): 13.26 h | AUCINF [1, 3]: 1461.44 µg·h/mL | C0 (initial concentration estimated by back-extrapolation) [1, 3]: 186.69 µg/mL | CL [1, 3]: 1.7533 mL/min/kg | MRT [1, 3]: 17.073 h | Solubility in acetone, ether, and chloroform ([2]; acetone, ether, chloroform): insoluble | Solubility in methanol ([2]; methanol): moderately soluble | Solubility in water ([2]; water): more than 100 mg/mL

— article PMC10304221, “Pharmacokinetic and Biomarker Quantification Studies on Vancomycin-Loaded PEGylated Liposomes and Its Potential to Reduce Vancomycin-Induced Kidney Injury: A Rat Study” (Pharmaceutics, 2023)
